Experimental data from patent US6620424B1, “Process for producing glycolytic metabolism regulators” (Suntory Limited, priority 1998, dated 2003).

How the values were obtained:
[1] = target: T1, rat liver type F6P2kinase (Rattus norvegicus, UniProt P07953); assay: Inhibition by itaconic acid of F6P2kinase activity catalyzing synthesis of F26BP; assay type: biochemical; settings: 0.5 mM itaconic acid; 0.4 mM F6P, 2 mM ATP, 30° C.; read-out: inhibitory activity on F6P2kinase
T1 construct: made in house; host or cells: Escherichia coli
T1 sequence (P07953 whole entry): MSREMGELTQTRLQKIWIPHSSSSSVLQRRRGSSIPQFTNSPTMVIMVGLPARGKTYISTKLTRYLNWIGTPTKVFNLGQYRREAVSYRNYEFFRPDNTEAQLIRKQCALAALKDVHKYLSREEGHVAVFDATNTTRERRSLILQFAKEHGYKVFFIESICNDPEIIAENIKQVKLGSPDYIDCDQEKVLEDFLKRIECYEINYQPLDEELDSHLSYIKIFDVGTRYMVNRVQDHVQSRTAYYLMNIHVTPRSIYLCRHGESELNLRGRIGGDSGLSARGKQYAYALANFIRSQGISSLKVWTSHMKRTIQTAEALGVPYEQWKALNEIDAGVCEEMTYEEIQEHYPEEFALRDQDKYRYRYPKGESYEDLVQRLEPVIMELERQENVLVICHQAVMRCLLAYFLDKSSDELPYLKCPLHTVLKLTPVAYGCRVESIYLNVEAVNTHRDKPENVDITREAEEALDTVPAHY
Experimental: The gene for rat liver type F6P2kinase was incorporated into Escherichia coli and expressed. From the E. coli cells, rat liver type F6P2kinase was purified (K. Kitamura et al., J. Biol. Chem., Vol. 264, 9799-9806, 1989). The rat liver type F6P2kinase (1.25 μg) was reacted at 30° C. in a reaction solution containing 100 mM Tris-HCl (pH 7.5), 0.1 mM EDTA, 10 mM MgCl2, 2 mM ATP, 0.4 mM F6P, and 0 to 1.5 mM itaconic acid. After lapses of 2, 4 and 6 minutes, 10 μl of the reaction mixture was transferred into a test tube containing 90 μl of 50 mM NaOH, and heated for 1 minute at 90° C. to terminate the reaction. The amount of the resulting F26BP was measured by a change in absorbance due to oxidation of NADH upon subsequent addition of glycolytic pathway enzymes. That is, 10 μl of the reaction mixture after termination of the reaction was added to 1 ml of a reaction solution containing 50 mM HEPES (pH 7.3), 0.2 mM EDTA, 5 mM MgCl2, 1 mM F6P, 1 mM PPi, 15 mU PPi-F6P phosphotransferase, 0.15 mM NADH, 1 U aldolase, 1 U glycerol-3-phosphate dehydrogenase, and 10 U triose-phosphate isomerase. The amount of F26BP was measured by a decrease in the absorbance at 340 nm (Van Schaftingen et al., Eur. J. Biochem., Vol. 129, 191-195, 1982). The activity that converts the substrate F6P to 1 μmole F26BP over 1 minute at 30° C. is defined as 1 U. The results are shown in FIG. 1.

[2] = tested on: Male SD rats; assay: Evaluation of preventive effect on obesity in rats (3 weeks, itaconic acid in drinking water); assay type: in vivo, rat
Experimental: Male SD rats (8-week-old) were individually reared, commencing immediately after arrival. After a week of acclimatization, the animals were divided into a control group and an itaconic acid group (8 animals per group), and reared for 3 weeks, with feed and drinking water of the itaconic acid concentration shown in [Table 1] being given ad lib.
During the 3-week rearing period, the body weight, the feed intake, and the water intake were measured daily or every other day. On the final day, the animal was placed on a 17-hour fast, the blood was sampled, and the plasma was analyzed for blood glucose, hepatic function, and lipid-related parameters. Furthermore, the weight of the livers, kidneys, fat around the kidneys, and fat around the intestines was measured. The experiments were conducted in groups of 8 rats each, and the results were indicated as mean values±standard deviations. The test for a significant difference was performed by the analysis of variance of data, followed by Student t-test. The level of significance was set at 0.05.
The plasma collected at completion of the experiments was measured for various biological parameters. […] The experiments were conducted in groups of 8 rats each, and the results were indicated as mean values±standard deviations. The test for a significant difference was performed by the analysis of variance of data, followed by Student t-test. The level of significance was set at 0.05.

[3] = tested on: streptozotocin-induced diabetes rats (male Wistar rats); assay: Evaluation of suppressive effect on blood glucose elevation in streptozotocin-induced diabetes rats; assay type: in vivo, rat
From the text: Streptozotocin is an antibiotic derived from Streptomyces achromogenes, one of […]. Its action of inducing insulin-dependent diabetes mellitus was reported for the first time in 1963 by Rakieten et al. (Rakieten N, Rakieten M L, Nadkarni M V, Cancer Chemother Rep 29:91-98, 1963). Since then, it has been used most commonly as a substance for inducing diabetes experimentally. The main mechanism of its diabetogenic action is ascribed to the destruction of P cells of the pancreas, thereby suppressing insulin secretion. In male Wistar rats (7-week-old), a solution of streptozotocin in 0.05 M citric acid-0.145 […] NaCl (pH 4.5) was administered into the caudal vein (50 mg/kg). The animals were individually reared, commencing immediately after administration of streptozotocin. After a lapse of 48 hours, the animals with blood glucose levels of 300 mg/dl or more were divided into a control group and an itaconic acid group (7 or 8 animals per group), and study was initiated. A rearing feed was given to the control group, and a rearing feed containing 1.38% of itaconic acid was given to the itaconic acid group, ad. lib. together with drinking water, and the animals were reared for 3 weeks.
During the 3-week rearing period, blood glucose, body weight, feed intake, and water intake were measured twice or 3 times weekly. Rats are nocturnal animals, and feeding mostly takes place at night. However, since their blood glucose fluctuates greatly depending on the elapsed time after eating, each measurement of blood glucose was made between 9:30 and 10:00 in the morning. Blood hemoglobin Alc was measured on the day after administration of streptozotocin and on the 19th day after start of the study. Hemoglobin Alc is hemoglobin having glucose attached thereto non-enzymatically, and is expressed as a percentage (%) of total hemoglobin. In humans, hemoglobin Alc is known to serve as an indicator of the mean value of blood glucose during the period from 1 to 3 months previously until blood sampling. In rats, the life of an erythrocyte is about half of that in humans, and hemoglobin Alc has been reported to reflect the mean value of blood glucose since 2 to 3 weeks previously.
The experiments were conducted in groups of 7 or 8 rats each, and the results were indicated as mean values±standard deviations. The blood glucose was expressed as changes in individual animals compared with the value found at the start of the study (grouping). The test for a significant difference was performed by the analysis of variance of data, followed by Student t-test. The level of significance was set at 0.05.

[4] = tested on: Male SD rats; assay: Evaluation of the suppressive effect on blood glucose elevation in rats (glucose challenge); assay type: in vivo, rat
Experimental: Male SD rats (weighing 300 to 400 g), operated on for blood sampling cannulation into the femoral artery, were used. After an overnight fast, itaconic acid (500 mg/kg) was orally administered. Thirty minutes later, glucose (4 g/kg) was ingested, and changes in blood glucose were observed. In the control group, purified water, free of itaconic acid, was orally administered in the same volume. Experiments were conducted in groups of 4 rats each, and the results were indicated as mean values±standard deviations. The test for a significant difference was performed by the analysis of variance of data, followed by Student t-test. Differences were taken as significant when p values were less than 0.05 (*p<0.05, **p<0.01).

[5] = animal studies and clinical trials; cited from earlier work
[6] = at completion of 3 weeks, FIG. 5
[7] = at completion of 3 weeks, p<0.05, FIG. 5
[8] = plasma after 3 weeks, 17-hour fast, mean ± SD, n=8
[9] = plasma after 3 weeks, 17-hour fast, mean ± SD, n=8, P < 0.05 vs control

C=C(CC(=O)O)C(=O)O [itaconic acid]
inhibition at 500 µM [1]: ~30% | feed intake ([2]; 3-week period, compared with the control group, FIG. 3): decreases in the feed intake were observed | weight of the kidneys per 100 g of body weight [2, 6]: not different between the groups | weight of the livers per 100 g of body weight [2, 6]: not different between the groups | weight of fat around the intestines per 100 g of body weight [2, 7]: significantly decreased | weight of fat around the kidneys per 100 g of body weight [2, 7]: significantly decreased | weight gain ([2]; from Day 9 onwards, p<0.05 against the control group, FIG. 2): significant suppression of weight gain | ALP [2, 8]: 0.3 ± 0.1 IU/l | Free cholesterol [2, 8]: 12.2 ± 2.0 mg/dL | GOT [2, 8]: 65.0 ± 12.0 IU/l | GPT [2, 8]: 13.0 ± 2.5 IU/l | LDH [2, 8]: 276 ± 82 IU/l | Total bilirubin [2, 8]: 0.19 ± 0.02 mg/dL | Total cholesterol [2, 8]: 46.3 ± 7.1 mg/dL | Triglycerides ([2]; plasma after 3 weeks, 17-hour fast, mean ± SD, n=8, P < 0.01 vs control): 20.9 ± 2.8 mg/dL | Blood glucose [2, 9]: 149 ± 19 mg/dL | Free fatty acids [2, 9]: 199 ± 75 mg/dL | rise in blood hemoglobin Alc ([3]; Day 19, compared with the control group, FIG. 11): significant curbing of the rise | body weight ([3]; feed containing 1.38% itaconic acid, 3 weeks, FIG. 8): not different between the groups | rise in blood glucose (change from start of study) ([3]; feed containing 1.38% itaconic acid, 3 weeks, from Day 1 onwards, p<0.05 on Days 5 and 15, FIG. 7): suppression of the rise in blood glucose was observed | feed intake ([3]; from about Day 5 onwards, compared with the control group, FIG. 9): decreases in feed intake were observed | initial rapid increase in blood glucose after glucose challenge ([4]; itaconic acid 500 mg/kg orally 30 min before glucose 4 g/kg, 30 minutes after challenge, FIG. 6): significantly curbed | blood glucose late after glucose challenge ([4]; itaconic acid 500 mg/kg orally, after 180 minutes and 240 minutes, versus control group): significantly high

OCC(CO)N[C@H]1C[C@](O)(CO)[C@@H](O)[C@H](O)[C@H]1O [voglibose]
rapid increases (peaks) in postprandial blood glucose [5]: suppressing rapid increases (peaks) in postprandial blood glucose
